Target: T1, GPR40 of human origin (Homo sapiens, UniProt O14842)
T1 construct: expressed in transfected cells
Test: Agonist action on GPR40 of human origin (Ca2+ fluorescence in a CHO cell strain stably expressing GPR40)
Assay type: cell-based
Conditions: Ca2+ concentration fluctuation, fluorescence intensity
Protocol: A CHO cell strain stably expressing GPR40 of human origin was used to determine the agonist action of a subject compound. This cell strain was seeded in a clear bottom 96 well plate at 4×10^4 cells/100 μL/well. The cell strain was cultured in a CO2 incubator overnight using a Ham's F-12 medium containing a 10% fetal bovine serum, 100 U/mL penicillin, 0.1 mg/mL streptomycin, and 400 μg/mL Geneticin. Calcium 4 Assay Kit (Molecular Devices) was used as a fluorescent calcium indicator. One mL of 77 mg/mL probenecid (Invitrogen) was added to 100 mL of a calcium indicator solution to prepare a solution (loading solution) mixed with a 20 mM HEPES-containing Hanks' balanced salt solution (HBSS) in equal proportions. 200 μL of the loading solution was added to the cells from which the culture solution was removed, and the cells were cultured in a CO2 incubator for 1 hour. The subject compound was diluted with a 20 mM HEPES-containing HBSS and was added to the cells by 50 μL, and the fluctuation of the Ca^2+ concentration was measured by an intracellular ion analyzer. The EC50 value of the subject compound was calculated using the dose-response curve of fluorescence intensity variation.

T1 sequence (O14842 whole entry): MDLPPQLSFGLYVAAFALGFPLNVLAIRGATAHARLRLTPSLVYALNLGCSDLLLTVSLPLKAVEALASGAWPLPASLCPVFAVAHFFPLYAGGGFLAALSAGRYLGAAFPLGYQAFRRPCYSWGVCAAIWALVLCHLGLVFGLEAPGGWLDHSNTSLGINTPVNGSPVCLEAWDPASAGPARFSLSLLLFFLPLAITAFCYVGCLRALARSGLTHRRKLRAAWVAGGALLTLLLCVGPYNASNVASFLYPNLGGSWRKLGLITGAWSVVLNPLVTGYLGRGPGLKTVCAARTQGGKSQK

Compound	EC50
Oc1cc(-c2ccc(OC3CCc4cc(Cl)ccc43)cc2)on1 (stereo not drawn) [Example 13, 5-(4-(5-chloro-2,3-dihydro-1H-inden-1-yloxy)phenyl)isoxazol-3-ol]	300 to 3000 nM
Cc1cc(OCCC(C)(C)O)cc(C)c1-c1cccc(COc2ccc(-c3cc(O)no3)cc2)c1C [Example 45, 5-[4-[[3-[4-(3-hydroxy-3-methylbutoxy)-2,6-dimethylphenyl]-2-methylphenyl]methoxy]phenyl]-1,2-oxazol-3-ol]	< 300 nM
Oc1cc(-c2ccc(NC3CCc4cc(Cl)ccc43)cc2)on1 (stereo not drawn) [Example 31, 5-(4-(5-chloro-2,3-dihydro-1H-inden-1-ylamino)phenyl)isoxazol-3-ol]	300 to 3000 nM
Oc1cc(-c2ccc(OC3CCc4c(Cc5ccccc5)cccc43)cc2)on1 (stereo not drawn) [Example 30, 5-(4-(4-benzyl-2,3-dihydro-1H-inden-1-yloxy)phenyl)isoxazol-3-ol]	< 300 nM
Cc1cc(OCCC(C)(C)O)nc(C)c1-c1cccc(COc2ccc(-c3cc(O)no3)cc2)c1 [Example 41, 5-(4-((3-(2,4-dimethyl-6-(3-hydroxy-3-methylbutoxy)pyridin-3-yl)phenyl)methoxy)phenyl)isoxazol-3-ol]	< 300 nM
Oc1cc(-c2ccc(OC3CCc4c(Oc5ccccc5)cccc43)cc2)on1 (stereo not drawn) [Example 26, 5-(4-(2,3-dihydro-4-phenoxy-1H-inden-1-yloxy)phenyl)isoxazol-3-ol]	< 300 nM
Oc1cc(-c2ccc(OC3Cc4ccccc4C3)cc2)on1 [Example 2, 5-(4-(2,3-dihydro-1H-inden-2-yloxy)phenyl)isoxazol-3-ol]	< 300 nM
Cc1cc(OCCCS(C)(=O)=O)cc(C)c1-c1cccc(COc2ccc(-c3cc(O)no3)cc2)c1 [Example 42, 5-[4-[[3-[2,6-dimethyl-4-(3-methylsulfonylpropoxy)phenyl]phenyl]methoxy]phenyl]-1,2-oxazol-3-ol]	< 300 nM
Oc1cc(-c2ccc(OC3CCc4c(-c5ccc6cc[nH]c6c5)cccc43)cc2)on1 (stereo not drawn) [Example 35, 5-(4-(2,3-dihydro-4-(1H-indol-6-yl)-1H-inden-1-yloxy)phenyl)isoxazol-3-ol]	300 to 3000 nM
Oc1cc(-c2ccc(OC3CCc4c(-c5ccc6c(c5)OCCO6)cccc43)cc2)on1 (stereo not drawn) [Example 34, 5-(4-(2,3-dihydro-4-(1,4-benzodioxan-6-yl)-1H-inden-1-yloxy)phenyl)isoxazol-3-ol]	300 to 3000 nM
Cc1cc(OCCC(C)(C)O)nc(C)c1-c1cccc2c1CCC2Oc1ccc(-c2cc(O)no2)cc1 (stereo not drawn) [Example 24, 5-(4-(4-(6-(3-hydroxy-3-methylbutoxy)-2,4-dimethylpyridin-3-yl)-2,3-dihydro-1H-inden-1-yloxy)phenyl)isoxazol-3-ol]	< 300 nM
Cc1cc(OCCC(C)(C)O)cc(C)c1-c1cccc2c1CCC2Oc1ccc(-c2cc(O)no2)cc1 (stereo not drawn) [Example 37, 5-[4-[[4-[4-(3-hydroxy-3-methylbutoxy)-2,6-dimethylphenyl]-2,3-dihydro-1H-inden-1-yl]oxy]phenyl]-1,2-oxazol-3-ol]	< 300 nM
COc1cccc(-c2cccc3c2CCC3Oc2ccc(-c3cc(O)no3)cc2)c1 (stereo not drawn) [Example 21, 5-(4-(2,3-dihydro-4-(3-methoxyphenyl)-1H-inden-1-yloxy)phenyl)isoxazol-3-ol]	< 300 nM
Cc1cc(OCCC(C)(C)O)ncc1-c1cccc(COc2ccc(-c3cc(O)no3)cc2)c1C [Example 38, 5-(4-((3-(6-(3-hydroxy-3-methylbutoxy)-4-methylpyridin-3-yl)-2-methylphenyl)methoxy)phenyl)isoxazol-3-ol]	< 300 nM
Cc1cc(OCCCN2CCCC2=O)cc(C)c1-c1cccc(COc2ccc(-c3cc(O)no3)cc2)c1 [Example 43, 1-[3-[4-[3-[[4-(3-hydroxy-1,2-oxazol-5-yl)phenoxy]methyl]phenyl]-3,5-dimethylphenoxy]propyl]pyrrolidin-2-one]	< 300 nM
Cc1cc(OC[C@H](O)CO)cc(C)c1-c1cccc(COc2ccc(-c3cc(O)no3)cc2)c1C [Example 44, (2R)-3-[4-[3-[[4-(3-hydroxy-1,2-oxazol-5-yl)phenoxy]methyl]-2-methylphenyl]-3,5-dimethylphenoxy]propane-1,2-diol]	< 300 nM
Cc1nc(OCCC(C)(C)O)ccc1-c1cccc(COc2ccc(-c3cc(O)no3)cc2)c1C [Example 39, 5-(4-((3-(6-(3-hydroxy-3-methylbutoxy)-2-methylpyridin-3-yl)-2-methylphenyl)methoxy)phenyl)isoxazol-3-ol]	< 300 nM
Cc1c(COc2ccc(-c3cc(O)no3)cc2)cccc1-c1cnc(OCCC(C)(C)O)c(C)c1C [Example 46, 5-[4-[[3-[6-(3-hydroxy-3-methylbutoxy)-4,5-dimethylpyridin-3-yl]-2-methylphenyl]methoxy]phenyl]-1,2-oxazol-3-ol]	< 300 nM
Oc1cc(-c2ccc(OC3CCc4c3ccc(Cl)c4Cl)cc2)on1 (stereo not drawn) [Example 19, 5-(4-(4,5-dichloro-2,3-dihydro-1H-inden-1-yloxy)phenyl)isoxazol-3-ol]	300 to 3000 nM
Oc1cc(-c2ccc(OC3CCc4c(OCc5ccccc5C(F)(F)F)cccc43)cc2)on1 (stereo not drawn) [Example 29, 5-(4-(2,3-dihydro-4-(2-(trifluoromethyl)benzyloxy)-1H-inden-1-yloxy)phenyl)isoxazol-3-ol]	300 to 3000 nM
Oc1cc(-c2ccc(OC3CCc4c(Cl)cccc43)cc2)on1 (stereo not drawn) [Example 11, 5-(4-(4-chloro-2,3-dihydro-1H-inden-1-yloxy)phenyl)isoxazol-3-ol]	< 300 nM
Oc1cc(-c2ccc(OC3CCc4cc(Br)ccc43)cc2)on1 (stereo not drawn) [Example 14, 5-(4-(5-bromo-2,3-dihydro-1H-inden-1-yloxy)phenyl)isoxazol-3-ol]	300 to 3000 nM
N#Cc1cccc2c1CCC2Oc1ccc(-c2cc(O)no2)cc1 (stereo not drawn) [Example 12, 5-(4-(4-cyano-2,3-dihydro-1H-inden-1-yloxy)phenyl)isoxazol-3-ol]	300 to 3000 nM
Cc1cc(OCC[C@@H](C)O)cc(C)c1-c1cccc2c1CCC2Oc1ccc(-c2cc(O)no2)cc1 (stereo partly drawn) [Example 36, 5-[4-[[4-[4-[(3R)-3-hydroxybutoxy]-2,6-dimethylphenyl]-2,3-dihydro-1H-inden-1-yl]oxy]phenyl]-1,2-oxazol-3-ol]	< 300 nM
Cc1cc(-c2cccc(COc3ccc(-c4cc(O)no4)cc3)c2C)c(C)nc1OCCC(C)(C)O [Example 47, 5-[4-[[3-[6-(3-hydroxy-3-methylbutoxy)-2,5-dimethylpyridin-3-yl]-2-methylphenyl]methoxy]phenyl]-1,2-oxazol-3-ol]	< 300 nM
COc1ncccc1-c1cccc2c1CCC2Oc1ccc(-c2cc(O)no2)cc1 (stereo not drawn) [Example 23, 5-(4-(2,3-dihydro-4-(2-methoxypyridin-3-yl)-1H-inden-1-yloxy)phenyl)isoxazol-3-ol]	< 300 nM
Cc1cc(OCCC(C)(C)O)nc(C)c1-c1cccc(COc2ccc(-c3cc(O)no3)cc2)c1C [Example 40, 5-(4-((3-(2,4-dimethyl-6-(3-hydroxy-3-methylbutoxy)pyridin-3-yl)-2-methylphenyl)methoxy)phenyl)isoxazol-3-ol]	< 300 nM
